# Values joined by “and” are separate entries in the source; they are usually repeats but may differ in a detail not shown here. Equal values may be shown once. Inconclusive results and toxic doses are left out.
# Test system: P388 leukemia ip, CD2F1 mice, survival T/C
# Test: NCI In Vivo Anticancer Drug Screen. Data for tumor model P388 Leukemia (intraperitoneal) in CD2F1 (CDF1) mice
# Conditions: endpoint: median survival time, higher = longer survival
# Method in brief: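 Mice carrying the transplanted tumor received test compound or vehicle. Survival was recorded in each group, and the value is the treated-group measurement divided by that of the vehicle-treated control group.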
# [1] = dose: 50.0 mg/kg/injection, schedule: Q01DX009 (ip), vehicle: Klucel (hydroxypropylcellulose) (HPC)
# [2] = dose: 100.0 mg/kg/injection, schedule: Q01DX009 (ip), vehicle: Klucel (hydroxypropylcellulose) (HPC)
# [3] = dose: 200.0 mg/kg/injection, schedule: Q01DX009 (ip), vehicle: Klucel (hydroxypropylcellulose) (HPC)
# [4] = dose: 50.0 mg/kg/injection, schedule: Q01DX009 (ip), vehicle: saline
# [5] = dose: 100.0 mg/kg/injection, schedule: Q01DX009 (ip), vehicle: saline
# [6] = dose: 200.0 mg/kg/injection, schedule: Q01DX009 (ip), vehicle: saline
# [7] = dose: 50.0 mg/kg/injection, schedule: Q01DX005 (ip), vehicle: saline with Tween-80
# [8] = dose: 25.0 mg/kg/injection, schedule: Q01DX009 (ip), vehicle: saline
# [9] = dose: 12.5 mg/kg/injection, schedule: Q01DX009 (ip), vehicle: saline
structure (smiles),measurement,setting,value
Cn1c2ccccc2c2nnc(N/N=C/c3ccc([N+](=O)[O-])o3)nc21,T/C,"dose: 100.0 mg/kg/injection, schedule: Q01DX001 (ip), vehicle: saline with Tween-80",90 % of control
same,T/C,"dose: 200.0 mg/kg/injection, schedule: Q01DX001 (ip), vehicle: saline with Tween-80",91 % of control
same,T/C,"dose: 400.0 mg/kg/injection, schedule: Q01DX001 (ip), vehicle: saline with Tween-80",96 % of control
CC1=C(C)Cn2c(=O)c3cc4ccccc4cc3c(=O)n2C1,T/C,[1],90 % of control
same,T/C,[2],90 % of control
COC(=O)CC1(C(=O)OC)C(Sc2ccccc2)=C(c2ccccc2)N2CCCC21 (stereo unspecified),T/C,"dose: 21.88 mg/kg/injection, schedule: Q01DX009 (ip), vehicle: Klucel (hydroxypropylcellulose) (HPC)",101 % of control
same,T/C,"dose: 43.75 mg/kg/injection, schedule: Q01DX009 (ip), vehicle: Klucel (hydroxypropylcellulose) (HPC)",96 % of control
same,T/C,"dose: 87.5 mg/kg/injection, schedule: Q01DX009 (ip), vehicle: Klucel (hydroxypropylcellulose) (HPC)",96 % of control
same,T/C,"dose: 175.0 mg/kg/injection, schedule: Q01DX009 (ip), vehicle: Klucel (hydroxypropylcellulose) (HPC)",92 % of control
O=C(/C=N/O)Nc1cccnc1,T/C,[1],109 % of control
same,T/C,[2],109 % of control
same,T/C,[3],109 % of control
Cn1c(=O)c2nc(-c3ccc(Cl)c(Cl)c3)oc2n(C)c1=O,T/C,[4],109 % of control
same,T/C,[5],111 % of control
same,T/C,[6],100 % of control
COC(=O)c1cc(=O)nc(NN=C2c3ccccc3-c3ccccc32)s1,T/C,"dose: 12.5 mg/kg/injection, schedule: Q01DX005 (ip), vehicle: saline with Tween-80",97 % of control
same,T/C,"dose: 25.0 mg/kg/injection, schedule: Q01DX005 (ip), vehicle: saline with Tween-80",94 % of control
same,T/C,[7],88 % of control and 92 % of control
CC(C)N1CCOCC1,T/C,[8],110 % of control
same,T/C,[4],105 % of control and 100 % of control
same,T/C,[5],105 % of control and 113 % of control
CC(=O)c1ccc2c(c1)N(CCCN(C)C)c1ccccc1S2,T/C,"dose: 3.12 mg/kg/injection, schedule: Q01DX009 (ip), vehicle: saline",94 % of control and 97 % of control
same,T/C,"dose: 6.25 mg/kg/injection, schedule: Q01DX009 (ip), vehicle: saline",93 % of control and 94 % of control
same,T/C,[9],103 % of control and 93 % of control
same,T/C,[4],101 % of control
same,T/C,[5],116 % of control
COC1=C(N)C(=O)c2nc(-c3nc(C(=O)O)c(C)c(-c4ccc(OC)c(OC)c4O)c3N)ccc2C1=O,T/C,"dose: 0.01 mg/kg/injection, schedule: Q01DX009 (ip), vehicle: other",93 % of control
same,T/C,"dose: 0.01 mg/kg/injection, schedule: Q## X024 (ip), vehicle: other",110 % of control
same,T/C,"dose: 0.02 mg/kg/injection, schedule: Q01DX009 (ip), vehicle: DMSO",101 % of control
same,T/C,"dose: 0.02 mg/kg/injection, schedule: Q## X016 (ip), vehicle: other",110 % of control
same,T/C,"dose: 0.02 mg/kg/injection, schedule: Q## X024 (ip), vehicle: other",100 % of control
same,T/C,"dose: 0.03 mg/kg/injection, schedule: Q01DX009 (ip), vehicle: distilled water + Tween-80",117 % of control and 97 % of control
same,T/C,"dose: 0.03 mg/kg/injection, schedule: Q01DX009 (ip), vehicle: other",95 % of control
same,T/C,"dose: 0.04 mg/kg/injection, schedule: Q01DX009 (ip), vehicle: DMSO",123 % of control
same,T/C,"dose: 0.05 mg/kg/injection, schedule: Q01DX001 (ip), vehicle: other",120 % of control
same,T/C,"dose: 0.05 mg/kg/injection, schedule: Q01DX009 (ip), vehicle: DMSO",119 % of control
same,T/C,"dose: 0.05 mg/kg/injection, schedule: Q## X008 (ip), vehicle: other",120 % of control
same,T/C,"dose: 0.05 mg/kg/injection, schedule: Q## X016 (ip), vehicle: other",110 % of control
same,T/C,"dose: 0.05 mg/kg/injection, schedule: Q## X024 (ip), vehicle: other",110 % of control
same,T/C,"dose: 0.06 mg/kg/injection, schedule: Q01DX009 (ip), vehicle: DMSO",124 % of control
same,T/C,"dose: 0.08 mg/kg/injection, schedule: Q01DX009 (ip), vehicle: DMSO",110 % of control
same,T/C,"dose: 0.1 mg/kg/injection, schedule: Q01DX001 (ip), vehicle: other",120 % of control
same,T/C,"dose: 0.1 mg/kg/injection, schedule: Q01DX009 (oral), vehicle: other",110 % of control
same,T/C,"dose: 0.1 mg/kg/injection, schedule: Q## X008 (ip), vehicle: other",120 % of control
same,T/C,"dose: 0.1 mg/kg/injection, schedule: Q## X016 (ip), vehicle: other",110 % of control
same,T/C,"dose: 0.12 mg/kg/injection, schedule: Q01DX009 (ip), vehicle: other",120 % of control
same,T/C,"dose: 0.15 mg/kg/injection, schedule: Q01DX009 (ip), vehicle: dioxane",123 % of control
same,T/C,"dose: 0.16 mg/kg/injection, schedule: Q01DX009 (ip), vehicle: distilled water + Tween-80",123 % of control
same,T/C,"dose: 0.16 mg/kg/injection, schedule: Q01DX009 (ip), vehicle: other",102 % of control and 103 % of control
same,T/C,"dose: 0.2 mg/kg/injection, schedule: Q01DX001 (ip), vehicle: other",120 % of control
same,T/C,"dose: 0.2 mg/kg/injection, schedule: Q01DX009 (oral), vehicle: other",110 % of control
same,T/C,"dose: 0.2 mg/kg/injection, schedule: Q## X008 (ip), vehicle: other",120 % of control
same,T/C,"dose: 0.2 mg/kg/injection, schedule: Q## X016 (ip), vehicle: other",120 % of control
same,T/C,"dose: 0.32 mg/kg/injection, schedule: Q01DX009 (ip), vehicle: distilled water + Tween-80",101 % of control and 94 % of control
same,T/C,"dose: 0.4 mg/kg/injection, schedule: Q01DX009 (oral), vehicle: other",110 % of control
same,T/C,"dose: 0.8 mg/kg/injection, schedule: Q01DX001 (oral), vehicle: other",100 % of control
same,T/C,"dose: 0.8 mg/kg/injection, schedule: Q01DX009 (oral), vehicle: other",100 % of control
same,T/C,"dose: 1.6 mg/kg/injection, schedule: Q01DX001 (oral), vehicle: other",100 % of control
same,T/C,"dose: 2.5 mg/kg/injection, schedule: Q01DX009 (ip), vehicle: saline with Tween-80",95 % of control
same,T/C,"dose: 3.2 mg/kg/injection, schedule: Q01DX001 (oral), vehicle: other",90 % of control
same,T/C,"dose: 12.5 mg/kg/injection, schedule: Q01DX009 (ip), vehicle: distilled water + Tween-80",103 % of control
same,T/C,"dose: 25.0 mg/kg/injection, schedule: Q01DX009 (ip), vehicle: distilled water + Tween-80",110 % of control
same,T/C,"dose: 50.0 mg/kg/injection, schedule: Q01DX009 (ip), vehicle: distilled water + Tween-80",119 % of control
same,T/C,"dose: 200.0 mg/kg/injection, schedule: Q01DX009 (ip), vehicle: distilled water + Tween-80",119 % of control
same,T/C,"dose: 25.0 micrograms/kg/injection, schedule: Q01DX009 (ip), vehicle: other",120 % of control
same,T/C,"dose: 400.0 micrograms/kg/injection, schedule: Q01DX009 (ip), vehicle: other",114 % of control
CCN(CCOC(=O)Nc1ccc(F)cc1)c1ccccc1,T/C,"dose: 60.0 mg/kg/injection, schedule: Q01DX005 (ip), vehicle: saline with Tween-80",111 % of control
same,T/C,"dose: 120.0 mg/kg/injection, schedule: Q01DX005 (ip), vehicle: saline with Tween-80",96 % of control
same,T/C,"dose: 240.0 mg/kg/injection, schedule: Q01DX005 (ip), vehicle: saline with Tween-80",94 % of control
O=C(Nc1cccc(Cl)c1Cl)SCCSC(=O)Nc1cccc(Cl)c1Cl,T/C,"dose: 50.0 mg/kg/injection, schedule: Q01DX009 (ip), vehicle: gum acacia",92 % of control
same,T/C,"dose: 100.0 mg/kg/injection, schedule: Q01DX009 (ip), vehicle: gum acacia",100 % of control
same,T/C,"dose: 200.0 mg/kg/injection, schedule: Q01DX009 (ip), vehicle: gum acacia",96 % of control
C=CCCC1CN2CCc3cc(OC)c(OC)cc3C2CC1=O (stereo unspecified),T/C,[1],113 % of control
same,T/C,[2],103 % of control
same,T/C,[3],105 % of control
NC1=NC(=O)N2CC12 (stereo unspecified),T/C,[4],122 % of control
same,T/C,[5],153 % of control and 158 % of control
same,T/C,[6],100 % of control
CCOC(=O)c1ccccn1,T/C,[9],95 % of control
same,T/C,[8],98 % of control
same,T/C,[4],101 % of control
same,T/C,[5],100 % of control
CC(=O)OCc1c(COC(C)=O)c(C(F)(F)F)n2c1CCC2,T/C,[1],90 % of control
same,T/C,[2],93 % of control
same,T/C,[3],104 % of control
CC1(C)CN=C(C2=C(O)c3ccccc3C2=O)C1,T/C,"dose: 100.0 mg/kg/injection, schedule: Q04DX003 (ip), vehicle: saline with Tween-80",91 % of control
same,T/C,"dose: 200.0 mg/kg/injection, schedule: Q04DX003 (ip), vehicle: saline with Tween-80",93 % of control
same,T/C,"dose: 400.0 mg/kg/injection, schedule: Q04DX003 (ip), vehicle: saline with Tween-80",90 % of control
O=C(Nc1cccc(Cl)c1)Nc1ccc(Sc2ccc(Cl)cc2)o1,T/C,[7],97 % of control
same,T/C,"dose: 100.0 mg/kg/injection, schedule: Q01DX005 (ip), vehicle: saline with Tween-80",88 % of control
same,T/C,"dose: 200.0 mg/kg/injection, schedule: Q01DX005 (ip), vehicle: saline with Tween-80",92 % of control
